ChEMBL document CHEMBL1136768, “Structure-activity relationships of (S,Z)-2-aminopurine methylenecyclopropane analogues of nucleosides. Variation of purine-6 substituents and activity against herpesviruses and hepatitis B virus” (J Med Chem, 2003)
pEC50: −log10 of the molar value.

Assays:
[1] = test system: Human alphaherpesvirus 1; experiment: Concentration inhibiting the replication of HSV-1 in BSC-1 cells determined by ELISA assay; assay type: functional, organism-based, herpes simplex virus; conditions: Human alphaherpesvirus 1, BSC-1
[2] = test system: CCRF-CEM; experiment: Cytotoxicity in uninfected CEM cells; assay type: functional; conditions: Homo sapiens
[3] = test system: Murid betaherpesvirus 1; experiment: Concentration inhibiting the replication of MCMV in MEF cells; assay type: functional, organism-based; conditions: Murid betaherpesvirus 1, MEF
[4] = test system: Human gammaherpesvirus 4; experiment: Concentration inhibiting the replication of EBV in H-1 cells by DNA hybridization assay; assay type: functional, organism-based; conditions: human gammaherpesvirus 4, H-1
[5] = test system: Human alphaherpesvirus 2; experiment: Concentration inhibiting the replication of HSV-2 in Vero cells.; assay type: functional, organism-based; conditions: Human alphaherpesvirus 2, Vero
[6] = test system: Human betaherpesvirus 5; experiment: Concentration inhibiting the replication of HCMV in HFF cells by plaque reduction assay; conditions: Human betaherpesvirus 5, HFF
[7] = test system: MEF; experiment: Cytotoxicity in uninfected MEF cells; assay type: functional; conditions: Mus musculus
[8] = test system: Human alphaherpesvirus 1; experiment: Concentration inhibiting the replication of HSV-1 in Vero cells determined by plaque reduction assay; assay type: functional, organism-based, herpes simplex virus; conditions: Human alphaherpesvirus 1, Vero
[9] = test system: Hepatitis B virus; experiment: Inhibition of the replication of HBV in 2.2.15 cells, by DNA hybridization assay; assay type: functional, organism-based; conditions: HepG2 2.2.15
[10] = test system: Human gammaherpesvirus 4; experiment: Concentration inhibiting the replication of EBV in Daudi cells; assay type: functional, organism-based; conditions: human gammaherpesvirus 4, Daudi
[11] = test system: Daudi; experiment: Cytotoxicity in uninfected Daudi cells; assay type: functional; conditions: Homo sapiens
[12] = test system: HFF; experiment: Cytotoxicity against proliferating HFF cells; assay type: functional; conditions: Homo sapiens
[13] = test system: Daudi; experiment: Concentration inhibiting the replication of EBV in Daudi cells by DNA hybridization assay; assay type: functional, cell-based; conditions: Homo sapiens
[14] = test system: HFF; experiment: Cytotoxicity was scored on uninfected HFF cells not affected by virus in the HCMV (AD169 strain) by neutral red uptake; assay type: functional

## Nc1nc(S)c2ncn(/C=C3/C[C@@H]3CO)c2n1
[1]
  pEC50: < 4.00
[2]
  CC50: 29 µM
[3]
  pEC50: < 4.80
[4]
  pEC50: < 4.70
[5]
  pEC50: < 4.30
[6]
  pEC50: < 4.10
[7]
  CC50: 64 µM
[8]
  pEC50: < 4.30
[9]
  pEC50: 4.70
[10]
  pEC50: < 5.10
[11]
  CC50: 35.3 µM

## Nc1nc(O)c2ncn(/C=C3/C[C@@H]3CO)c2n1
[1]
  pEC50: 4.35
[2]
  CC50: 90 µM
[3]
  pEC50: 6.41
[4]
  pEC50: 6.33
[5]
  pEC50: < 4.30
[6]
  pEC50: 4.26
[7]
  CC50: > 429 µM
[12]
  CC50: 257 µM
[13]
  pEC50: > 6.47
[8]
  pEC50: 4.30
[9]
  pEC50: < 5.00
[10]
  pEC50: 5.64
[11]
  CC50: > 215 µM

## Nc1nc(NCC2CC2)c2ncn(/C=C3/C[C@@H]3CO)c2n1
[1]
  pEC50: 5.60
[2]
  CC50: > 100 µM
[3]
  pEC50: 5.77
[4]
  pEC50: < 4.70
[5]
  pEC50: < 4.30
[6]
  pEC50: 4.97
[7]
  CC50: 279 µM
[13]
  pEC50: 5.15
[8]
  pEC50: 4.60
[9]
  pEC50: < 4.70
[10]
  pEC50: 6.25
[11]
  CC50: > 175 µM

## CC(C)Nc1nc(N)nc2c1ncn2/C=C1/C[C@@H]1CO
[1]
  pEC50: 4.82
[2]
  CC50: > 100 µM
[4]
  pEC50: 4.96
[5]
  pEC50: < 4.30
[6]
  pEC50: < 3.44
[8]
  pEC50: < 4.42
[9]
  pEC50: < 5.00
[14]
  CC50: > 365 µM
[10]
  pEC50: 4.44
[11]
  CC50: 168 µM

## Nc1nc(NC2CCCCC2)c2ncn(/C=C3/C[C@@H]3CO)c2n1
[1]
  pEC50: 4.82
[2]
  CC50: > 100 µM
[4]
  pEC50: < 4.70
[5]
  pEC50: < 4.30
[6]
  pEC50: 3.74
[8]
  pEC50: < 4.30
[9]
  pEC50: < 4.70
[14]
  CC50: > 318 µM
[10]
  pEC50: < 3.80
[11]
  CC50: > 159 µM

## C=CCNc1nc(N)nc2c1ncn2/C=C1/C[C@@H]1CO
[1]
  pEC50: 5.40
[2]
  CC50: > 100 µM
[3]
  pEC50: 6.48
[4]
  pEC50: 4.73
[5]
  pEC50: 4.68
[6]
  pEC50: < 3.43
[7]
  CC50: > 368 µM
[12]
  CC50: > 368 µM
[8]
  pEC50: 4.74
[9]
  pEC50: 4.70
[10]
  pEC50: < 3.74
[11]
  CC50: > 184 µM

## CCCCCOc1nc(N)nc2c1ncn2/C=C1/C[C@@H]1CO
[1]
  pEC50: 5.15
[2]
  CC50: 87 µM
[3]
  pEC50: 5.84
[4]
  pEC50: 5.14
[5]
  pEC50: 5.40
[6]
  pEC50: < 4.18
[7]
  CC50: 224 µM
[12]
  CC50: 41.9 µM
[8]
  pEC50: 5.52
[9]
  pEC50: 5.14
[10]
  pEC50: 4.63
[11]
  CC50: > 165 µM

## CCCCCSc1nc(N)nc2c1ncn2/C=C1/C[C@@H]1CO
[1]
  pEC50: 5.15
[2]
  CC50: 26 µM
[3]
  pEC50: 5.82
[4]
  pEC50: < 4.70
[5]
  pEC50: 4.85
[6]
  pEC50: < 4.10
[7]
  CC50: 171 µM
[12]
  CC50: 215 µM
[8]
  pEC50: 5.00
[9]
  pEC50: < 4.70
[10]
  pEC50: 4.40
[11]
  CC50: > 157 µM

## C=CCOc1nc(N)nc2c1ncn2/C=C1/C[C@@H]1CO
[1]
  pEC50: 5.82
[2]
  CC50: 26 µM
[3]
  pEC50: 6.54
[4]
  pEC50: 5.96
[5]
  pEC50: 5.10
[6]
  pEC50: 5.64
[7]
  CC50: > 366 µM
[12]
  CC50: 220 µM
[8]
  pEC50: 5.15
[9]
  pEC50: 4.96
[10]
  pEC50: < 3.74
[11]
  CC50: > 183 µM

## Nc1nc(NCc2ccccc2)c2ncn(/C=C3/C[C@@H]3CO)c2n1
[1]
  pEC50: < 4.30
[2]
  CC50: > 50 µM
[4]
  pEC50: < 4.70
[5]
  pEC50: 4.28
[6]
  pEC50: < 4.21
[7]
  CC50: 25 µM
[8]
  pEC50: < 4.00
[9]
  pEC50: < 4.70
[14]
  CC50: > 310 µM
[10]
  pEC50: < 3.81

## CCCSc1nc(N)nc2c1ncn2/C=C1/C[C@@H]1CO
[1]
  pEC50: 6.00
[2]
  CC50: > 100 µM
[3]
  pEC50: 5.85
[4]
  pEC50: 5.20
[5]
  pEC50: 5.00
[6]
  pEC50: < 4.16
[7]
  CC50: 343 µM
[12]
  CC50: 283 µM
[8]
  pEC50: 5.05
[9]
  pEC50: 5.29
[10]
  pEC50: < 3.76
[11]
  CC50: > 172 µM

## Nc1nc(OCC2CC2)c2ncn(/C=C3/C[C@@H]3CO)c2n1
[1]
  pEC50: 5.15
[2]
  CC50: 41 µM
[3]
  pEC50: 6.46
[4]
  pEC50: 4.90
[5]
  pEC50: 4.92
[6]
  pEC50: 5.08
[7]
  CC50: 278 µM
[12]
  CC50: 112 µM
[8]
  pEC50: 5.10
[9]
  pEC50: 4.90
[10]
  pEC50: 4.53
[11]
  CC50: 112 µM

## Nc1nc(NC2CC2)c2ncn(/C=C3/C[C@@H]3CO)c2n1
[1]
  pEC50: 4.70
[2]
  CC50: 70 µM
[3]
  pEC50: 6.82
[4]
  pEC50: 6.18
[5]
  pEC50: 4.66
[6]
  pEC50: 4.92
[7]
  CC50: 367 µM
[12]
  CC50: 213 µM
[13]
  pEC50: 6.07
[8]
  pEC50: 4.82
[9]
  pEC50: < 5.00
[10]
  pEC50: 5.21
[11]
  CC50: 176 µM

## C#CCNc1nc(N)nc2c1ncn2/C=C1/C[C@@H]1CO
[1]
  pEC50: 5.22
[2]
  CC50: > 100 µM
[3]
  pEC50: 6.43
[4]
  pEC50: ~5.70
[5]
  pEC50: 4.30
[6]
  pEC50: < 4.13
[7]
  CC50: > 370 µM
[12]
  CC50: 306 µM
[8]
  pEC50: 4.70
[9]
  pEC50: < 5.00
[10]
  pEC50: < 3.73
[11]
  CC50: > 185 µM

## Nc1nc(NCCO)c2ncn(/C=C3/C[C@@H]3CO)c2n1
[1]
  pEC50: < 4.00
[2]
  CC50: > 100 µM
[3]
  pEC50: 4.92
[4]
  pEC50: < 4.70
[5]
  pEC50: < 4.30
[6]
  pEC50: < 4.22
[7]
  CC50: > 362 µM
[8]
  pEC50: < 4.30
[9]
  pEC50: < 4.70
[10]
  pEC50: < 3.74
[11]
  CC50: > 181 µM

## COc1nc(N)nc2c1ncn2/C=C1/C[C@@H]1CO
[1]
  pEC50: 4.70
[2]
  CC50: 98 µM
[3]
  pEC50: 6.62
[4]
  pEC50: 6.36
[5]
  pEC50: 4.80
[6]
  pEC50: 5.00
[7]
  CC50: 351 µM
[12]
  CC50: 15.8 µM
[13]
  pEC50: 6.00
[8]
  pEC50: 4.64
[9]
  pEC50: < 5.00
[10]
  pEC50: 5.42
[11]
  CC50: 146 µM

## CCCOc1nc(N)nc2c1ncn2/C=C1/C[C@@H]1CO
[1]
  pEC50: 6.00
[2]
  CC50: 32 µM
[3]
  pEC50: > 6.96
[4]
  pEC50: 5.82
[5]
  pEC50: 5.00
[6]
  pEC50: 5.10
[7]
  CC50: 363 µM
[12]
  CC50: 69.4 µM
[8]
  pEC50: 5.40
[9]
  pEC50: 5.39
[10]
  pEC50: < 3.74
[11]
  CC50: > 182 µM
